From PMC7816042, “Insights into the Structure-Activity Relationship of Glycosides as Positive Allosteric Modulators Acting on P2X7 Receptors” (Molecular Pharmacology, 2021)
Counter-ions that a name gives are not always drawn.

Tests used:
[1] = target: T1, endogenous P2X7 in THP-1 cells (Homo sapiens, UniProt Q99572); test: Fura-2 calcium measurements in THP-1 monocytes; format: cell-based
T1 sequence (Q99572 1-394 limits assumed): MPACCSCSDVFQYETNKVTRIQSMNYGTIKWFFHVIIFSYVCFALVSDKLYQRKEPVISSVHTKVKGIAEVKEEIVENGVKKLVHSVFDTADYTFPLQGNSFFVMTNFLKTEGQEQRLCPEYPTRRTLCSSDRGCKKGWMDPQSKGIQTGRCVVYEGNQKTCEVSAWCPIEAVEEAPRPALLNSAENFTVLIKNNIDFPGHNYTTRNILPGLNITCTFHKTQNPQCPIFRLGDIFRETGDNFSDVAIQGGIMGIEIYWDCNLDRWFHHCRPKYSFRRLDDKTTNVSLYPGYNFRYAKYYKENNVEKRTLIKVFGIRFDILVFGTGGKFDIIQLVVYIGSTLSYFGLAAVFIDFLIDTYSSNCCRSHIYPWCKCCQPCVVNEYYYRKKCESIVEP
Method: THP-1 cells were pelleted by centrifugation (300g, 5 minute), washed, and resuspended in Hanks’ balanced salt solution buffer containing 2 μM fura-2 AM (HelloBio) and 250 μM (±)-sulfinpyrazone. Cells were loaded for 1 hour in a waterbath at 37°C while shielded from light with foil. Loaded cells were washed once with 5 ml Hanks’ balanced salt solution to remove excess fura-2 AM dye. THP-1 cells were then resuspended, counted, and plated at 2 × 10^5 cells per well in a standard clear 96-well plate (NUNC 167008; Thermo Scientific) in low divalent assay buffer without Mg^2+ (145 mM NaCl, 2 mM KCl and 2 mM CaCl2, 13 mM glucose, 10 mM HEPES, pH 7.3) containing 250 μM (±)-sulfinpyrazone. The 10× concentration of agonist (ATP) was prepared in the same assay buffer. ATP was injected automatically into wells at 30 seconds in a Flexstation 3 microplate reader. Ratiometric data were acquired using 340 and 380 nm for excitation wavelengths, 520 nm as the emission wavelength, and six reads per well (PMT medium). Area under the curve was calculated using standard zero baseline normalization with a lag time 0–300 seconds using SoftMax Pro version 5.4 software.
(§1) Results are expressed as means ± S.D. from the indicated number of experiments. For YO-PRO-1 dye uptake and intracellular calcium experiments, each independent experiment used triplicate wells, and the means of the replicates were collated and plotted. Technical replicates were used to ensure reliability of fluorescence values. […] Dose-response curves were plotted by a nonlinear regression fit with variable slope using GraphPad Prism software version 7. Half-maximal responses are expressed as EC50 values with 95% confidence intervals. These values were calculated from the collated data for each compound from three independent experiments. Statistical differences were determined by analysis of the data by one-way ANOVA followed by Dunnett’s multiple comparison test or Sidak’s multiple comparison test using GraphPad Prism version 7. P < 0.05 was the accepted minimum level of significance.

HEK-hP2X7 cells = test: Cell viability assay (resazurin/Alamar blue) in HEK-hP2X7 cells; format: cell-based, human; conditions: 24 hours
Method: HEK-hP2X7 or THP-1 cells were seeded at 5 × 10^3 cells per well in a volume of 100 μl for 24 hours in 96-well plates (Nunclon Edge plates, catalog number 167425; Thermo Scientific). Cells were plated in DMEM:F12 medium or RPMI 1640 medium containing 1% FBS and penicillin/streptomycin for 24 hours in a humidified incubator at 37°C with a constant supply of 5% CO2. Edge wells of the plates were filled with autoclaved distilled water to prevent evaporation of media from wells containing cells. The compounds and ATP were made at 2× final concentration in 1% FBS DMEM:F12 and 100 μl added to the cells for 24 hours. After incubation, resazurin sodium salt (CAS 62758-13-8; Sigma Aldrich) at 0.1 mg/ml in sterile PBS was added to the plate (20 into 200 µl culture medium per well). Cells were incubated for a further 2 hours in a humidified incubator at 37°C with a supply of 5% CO2. A Flexstation 3 microplate reader was used to acquire data. Endpoint fluorescence data were measured using 570 nm excitation wavelength, 600 nm emission wavelength (cutoff at 590 nm), and three reads per well (PMT low). Data were analyzed by performing background correction through subtracting blank medium readings (without cells) from all samples and then normalizing each sample to medium treated cells (control treatment, 100%) as percentage of control.
Results are expressed as means ± S.D. from the indicated number of experiments. For YO-PRO-1 dye uptake and intracellular calcium experiments, each independent experiment used triplicate wells, and the means of the replicates were collated and plotted. Technical replicates were used to ensure reliability of fluorescence values. Cell viability data were normalized to the vehicle control for each experiment after background correction had been performed. Dose-response curves were plotted by a nonlinear regression fit with variable slope using GraphPad Prism software version 7. Half-maximal responses are expressed as EC50 values with 95% confidence intervals. These values were calculated from the collated data for each compound from three independent experiments. Statistical differences were determined by analysis of the data by one-way ANOVA followed by Dunnett’s multiple comparison test or Sidak’s multiple comparison test using GraphPad Prism version 7. P < 0.05 was the accepted minimum level of significance.

human P2X7 = target: T2, human P2X7 (Homo sapiens, UniProt Q99572); test: YO-PRO-1 dye uptake assay in HEK-hP2X7 cells; format: cell-based; conditions: for PAM effect on ATP dose-response curve / EC50 ratio / Maximum response (fold increase) / ATP-induced YO-PRO-1 response in fixed-concentration screen: 10 µM glycoside; for PAM effect on ATP dose-response curve: HEK-hP2X7, result in words; for EC50 ratio: average EC50 for ATP + vehicle of each set of experiments used; for Maximum response (fold increase): maximum response defined at 1 mM ATP; for ATP-induced YO-PRO-1 response in fixed-concentration screen: 200 µM ATP, compared with ATP + DMSO
T2 construct: expressed in transfected cells
T2 sequence (Q99572 1-595): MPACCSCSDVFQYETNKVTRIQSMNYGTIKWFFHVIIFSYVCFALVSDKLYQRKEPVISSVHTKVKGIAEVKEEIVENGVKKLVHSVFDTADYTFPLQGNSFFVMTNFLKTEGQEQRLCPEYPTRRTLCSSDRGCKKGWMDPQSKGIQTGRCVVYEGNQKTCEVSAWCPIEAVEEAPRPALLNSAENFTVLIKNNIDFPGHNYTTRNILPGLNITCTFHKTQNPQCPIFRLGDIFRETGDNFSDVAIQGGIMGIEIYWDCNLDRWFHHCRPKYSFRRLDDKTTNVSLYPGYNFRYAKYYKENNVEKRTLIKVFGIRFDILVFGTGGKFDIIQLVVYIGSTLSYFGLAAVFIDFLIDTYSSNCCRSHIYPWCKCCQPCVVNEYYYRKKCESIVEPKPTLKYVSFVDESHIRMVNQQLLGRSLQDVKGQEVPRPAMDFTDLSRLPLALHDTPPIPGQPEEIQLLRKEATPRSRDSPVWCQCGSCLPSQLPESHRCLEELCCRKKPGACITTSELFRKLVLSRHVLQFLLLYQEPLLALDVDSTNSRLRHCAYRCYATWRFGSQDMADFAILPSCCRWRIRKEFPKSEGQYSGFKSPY
Method: ATP-induced dye uptake experiments were performed as described previously ([Bidula et al., 2019b]). Briefly, HEK-hP2X7 cells were plated at 2 × 10^4 cells per well (100 μl per well) in complete medium and left overnight to attach to poly-D-lysine–coated 96-well plates. YO-PRO-1 iodide was prepared in a low divalent buffered solution ([…], 2 mM KCl, 13 mM D-glucose, 10 mM HEPES, 0.2 mM CaCl2 pH 7.3) to a final concentration of 2 μM. Medium was removed from the plate using a manual multichannel pipette and YO-PRO-1 containing buffer applied to wells (180 μl per well). […] A Flexstation 3 plate reader (Molecular Devices, Sunnyvale, CA) was used to record YO-PRO-1 fluorescence in HEK-hP2X7 for 300 seconds after the addition of ATP (at 10× final concentration) with/without ginsenoside compounds or vehicle (DMSO). Plates were allowed to warm up to 37°C for 10 minutes before initiating the recording. Baseline recordings were made for 40 seconds before compound addition using the Flexstation 3 fluidics system. YO-PRO-1 fluorescence was measured at 520 nm after excitation at 490 nm (auto cutoff at 495 nm), and the sample interval was 3.5 seconds. Flexstation settings were photomultiplier tube (PMT) medium, six reads per well, pipette height 170, and a rate of injection of 3. Data were acquired using Softmax Pro version 5.4 (Molecular Devices). To analyze the data, area under the dye uptake curve was calculated in Softmax Pro version 5 using zero baseline data with a lag time of 50 seconds (50–300 seconds).
as §1

Row | SMILES | PAM effect on ATP dose-response curve (human P2X7) | EC50 ratio (human P2X7) | Maximum response (fold increase) (human P2X7) [fold] | ATP-induced YO-PRO-1 response in fixed-concentration screen (human P2X7) | further results
1 | O=C1CSC(=O)N1C(CCc1ccncc1)COc1ccc(-c2cccc([N+](=O)[O-])c2)cc1 (stereo not drawn) [AZ11645373, reference compound] | – | – | – | – | Antagonist effect on ginsenoside-CK potentiated calcium response ([1]; 10 µM antagonist pretreatment, 500 µM ATP + ginsenoside-CK): completely abolished; Antagonist effect on calcium response to ATP alone ([1]; 500 µM ATP, antagonist pretreatment): did not dramatically affect
2 | CC(C)=CCC[C@@](C)(O)[C@H]1CC[C@]2(C)[C@@H]1[C@H](O)C[C@@H]1[C@@]3(C)CC[C@H](O[C@@H]4O[C@H](CO)[C@@H](O)[C@H](O)[C@H]4O[C@@H]4O[C@H](CO)[C@@H](O)[C@H](O)[C@H]4O)C(C)(C)[C@@H]3CC[C@]12C [Ginsenoside-20(R)-Rg3, 20(R)-ginsenoside-Rg3] | inactive | 1.0 | 0.94 | – | Cell viability in combination with ATP (HEK-hP2X7 cells): neither gypenoside XVII nor 20(R)-Rg3 in combination with ATP affected cell viability
3 | CC(C)=CCC[C@](C)(O[C@@H]1O[C@H](CO)[C@@H](O)[C@H](O)[C@H]1O)[C@H]1CC[C@]2(C)[C@@H]1[C@H](O)C[C@@H]1[C@@]3(C)CC[C@H](O)C(C)(C)[C@@H]3[C@@H](O)C[C@]12C [Ginsenoside-F1, ginsenoside-F1] | did not potentiate P2X7 responses | 1.1 | 1.46 | – | Effect on ATP-induced calcium response ([1]; 500 µM ATP co-applied with 10 µM glycoside): inactive
4 | C[C@H](CC[C@@H](O[C@@H]1O[C@H](CO[C@@H]2O[C@H](CO)[C@@H](O)[C@H](O)[C@H]2O)[C@@H](O)[C@H](O)[C@H]1O[C@@H]1O[C@H](CO)[C@@H](O)[C@H](O)[C@H]1O)C(C)(C)O)[C@H]1CC[C@@]2(C)[C@@H]3CC=C4[C@@H](CC[C@H](O[C@@H]5O[C@H](CO[C@@H]6O[C@H](CO)[C@@H](O)[C@H](O)[C@H]6O)[C@@H](O)[C@H](O)[C@H]5O)C4(C)C)[C@]3(C)[C@H](O)C[C@]12C [Mogroside V, mogroside V] | – | – | – | no modulation of P2X7 | –
5 | C[C@@H]1O[C@@H](O[C@H]2C[C@@H](O)[C@]3(CO)[C@H]4[C@H](O)C[C@]5(C)[C@@H](C6=CC(=O)OC6)CC[C@]5(O)[C@@H]4CC[C@]3(O)C2)[C@H](O)[C@H](O)[C@H]1O [Ouabain, ouabain, reference compound] | no effect on the ATP dose-response curves | 1.1 | 1.08 | – | –
6 | CC(=O)O[C@@H]1C[C@]2(O)[C@H](CC[C@]3(C)[C@@H](c4ccc(=O)oc4)CC[C@@]32O)[C@@]2(C)CC[C@H](O[C@@H]3O[C@H](CO)[C@@H](O)[C@H](O)[C@H]3O)C=C12 [Scilliroside] | no effect on the ATP dose-response curves | 1.3 | 1.07 | – | –
7 | C[C@H]1CC[C@@H]2[C@@H](C)[C@H]3[C@H](C[C@H]4[C@@H]5CC=C6C[C@@H](O[C@@H]7O[C@H](CO)[C@H](O)[C@H](O[C@@H]8O[C@H](CO)[C@@H](O)[C@H](O)[C@H]8O)[C@H]7O[C@@H]7O[C@@H](C)[C@H](O)[C@@H](O)[C@H]7O)CC[C@]6(C)[C@H]5CC[C@]34C)N2C1 [Solanine, solanine hydrochloride] | – | – | – | large increase | Effect of AZ10606120 pretreatment on response to ATP + glycoside (P2X7 dependence) (human P2X7; 10 µM AZ10606120 pretreatment): unaffected by AZ10606120 pretreatment; Toxic effect on cells (human P2X7; YO-PRO-1 uptake without ATP or without P2X7): toxic effect on the cells
8 | CC(C)=CCC[C@](C)(O[C@@H]1O[C@H](CO[C@@H]2OC[C@@H](O)[C@H](O)[C@H]2O)[C@@H](O)[C@H](O)[C@H]1O)[C@H]1CC[C@]2(C)[C@@H]1[C@H](O)C[C@@H]1[C@@]3(C)CC[C@H](O[C@@H]4O[C@H](CO)[C@@H](O)[C@H](O)[C@H]4O)C(C)(C)[C@@H]3CC[C@]12C [Stevenleaf (gypenoside IX), stevenleaf] | – | 0.7 | 1.64 | – | –
9 | C=C1C[C@@]23CC[C@H]4[C@@](C)(CCC[C@@]4(C)C(=O)O[C@@H]4O[C@H](CO)[C@@H](O)[C@H](O)[C@H]4O)[C@@H]2CC[C@]1(O[C@@H]1O[C@H](CO)[C@@H](O)[C@H](O)[C@H]1O[C@@H]1O[C@H](CO)[C@@H](O)[C@H](O)[C@H]1O)C3 [Stevioside, stevioside] | – | 1.0 | – | no modulation of P2X7 | –
